In US9550775B2, “Substituted triazolopyridines and methods of use thereof” (GENENTECH, INC., priority 2013, dated 2017):

Molecular target: hNav1.7 (Homo sapiens (Human), UniProt Q15858)
Experiment: Tritiated sulfonamide competitive binding to membranes from cells expressing hNav1.7 and the β1 subunit;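 also: displacement of the tritiated ligand from recombinant cell membranes, read by liquid scintillation counting of filter-bound radioactivity, nonspecific binding defined with 1 µM unlabelled compound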
Details: 100 pM [3H]compound, 18 h, room temperature; inactivated state of NaV1.7 membrane binding; read-out: NaV1.7 Ligand Binding Assay (IC50)

hNav1.7, sequence (Q15858 other isoform, or with tags, fused parts or gaps): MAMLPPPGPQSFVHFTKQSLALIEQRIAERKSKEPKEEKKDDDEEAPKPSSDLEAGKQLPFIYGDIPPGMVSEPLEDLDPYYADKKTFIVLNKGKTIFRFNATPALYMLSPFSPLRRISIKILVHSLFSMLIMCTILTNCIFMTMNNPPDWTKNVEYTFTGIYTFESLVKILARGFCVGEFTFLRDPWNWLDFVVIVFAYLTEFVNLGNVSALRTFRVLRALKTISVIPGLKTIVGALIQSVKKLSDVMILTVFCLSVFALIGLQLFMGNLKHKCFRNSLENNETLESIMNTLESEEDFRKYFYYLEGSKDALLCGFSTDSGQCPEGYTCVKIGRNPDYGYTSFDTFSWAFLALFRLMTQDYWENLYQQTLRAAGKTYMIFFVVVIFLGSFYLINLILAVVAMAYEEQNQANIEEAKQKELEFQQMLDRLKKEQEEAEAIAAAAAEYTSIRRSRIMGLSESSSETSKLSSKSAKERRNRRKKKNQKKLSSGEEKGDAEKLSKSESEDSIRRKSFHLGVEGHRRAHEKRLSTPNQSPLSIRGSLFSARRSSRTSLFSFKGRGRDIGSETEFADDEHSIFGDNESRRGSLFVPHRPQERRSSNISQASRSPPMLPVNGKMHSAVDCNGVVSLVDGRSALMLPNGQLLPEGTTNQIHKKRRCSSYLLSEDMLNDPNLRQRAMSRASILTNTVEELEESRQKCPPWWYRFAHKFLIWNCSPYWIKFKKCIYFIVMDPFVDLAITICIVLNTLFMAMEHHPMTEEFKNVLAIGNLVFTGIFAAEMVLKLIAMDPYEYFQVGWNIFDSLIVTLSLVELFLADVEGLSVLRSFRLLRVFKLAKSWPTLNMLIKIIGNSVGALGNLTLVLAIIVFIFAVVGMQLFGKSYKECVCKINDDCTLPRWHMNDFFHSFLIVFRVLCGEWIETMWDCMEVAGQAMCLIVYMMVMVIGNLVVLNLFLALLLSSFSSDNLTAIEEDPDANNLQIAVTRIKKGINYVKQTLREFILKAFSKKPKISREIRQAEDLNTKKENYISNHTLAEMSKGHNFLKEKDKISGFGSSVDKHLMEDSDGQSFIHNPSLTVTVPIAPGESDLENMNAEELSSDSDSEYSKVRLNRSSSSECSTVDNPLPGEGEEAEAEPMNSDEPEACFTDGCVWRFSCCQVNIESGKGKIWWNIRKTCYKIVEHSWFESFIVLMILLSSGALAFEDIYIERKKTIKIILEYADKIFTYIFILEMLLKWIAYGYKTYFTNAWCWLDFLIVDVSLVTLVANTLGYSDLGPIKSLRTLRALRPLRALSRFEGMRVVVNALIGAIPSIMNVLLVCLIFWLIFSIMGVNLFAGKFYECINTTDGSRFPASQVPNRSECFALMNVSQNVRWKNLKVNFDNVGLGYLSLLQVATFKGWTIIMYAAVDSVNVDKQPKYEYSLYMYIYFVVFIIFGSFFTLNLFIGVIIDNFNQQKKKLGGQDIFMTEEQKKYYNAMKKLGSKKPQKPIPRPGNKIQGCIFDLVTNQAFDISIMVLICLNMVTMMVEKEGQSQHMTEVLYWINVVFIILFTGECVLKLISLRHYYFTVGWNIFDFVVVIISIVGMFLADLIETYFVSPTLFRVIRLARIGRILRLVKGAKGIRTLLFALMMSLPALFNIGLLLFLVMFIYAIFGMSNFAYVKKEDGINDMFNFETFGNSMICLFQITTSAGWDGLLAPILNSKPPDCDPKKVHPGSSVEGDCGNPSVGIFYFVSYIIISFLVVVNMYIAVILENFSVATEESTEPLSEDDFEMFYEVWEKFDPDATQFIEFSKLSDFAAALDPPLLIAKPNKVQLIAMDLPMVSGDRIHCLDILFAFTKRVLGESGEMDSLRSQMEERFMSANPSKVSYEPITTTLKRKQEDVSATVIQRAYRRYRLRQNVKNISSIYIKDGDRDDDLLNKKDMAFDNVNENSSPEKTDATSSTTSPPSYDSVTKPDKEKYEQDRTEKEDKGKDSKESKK
hNav1.7, sequence (Q07699 19-218 partner): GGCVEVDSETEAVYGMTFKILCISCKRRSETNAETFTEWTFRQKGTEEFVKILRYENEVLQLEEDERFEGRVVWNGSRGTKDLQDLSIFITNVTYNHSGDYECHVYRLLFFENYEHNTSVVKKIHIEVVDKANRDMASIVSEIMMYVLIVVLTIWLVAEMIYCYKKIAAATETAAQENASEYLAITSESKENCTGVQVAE

Structure (SMILES) | IC50 [nM]
C=Cc1cn2c(NS(C)(=O)=O)nnc2cc1OCC1(C)CCCCC1 [Example 7, N-(7-((1-methylcyclohexyl)methoxy)-6-vinyl-[1,2,4]-triazolo[4,3-a]pyridin-3-yl)methanesulfonamide] | 65.3
CC1(C)C2CC[C@]1(C)[C@H](Oc1cc3nnc(NS(C)(=O)=O)n3cc1C1CC1)C2 (stereo in doubt) [Example 86] | 260
CC1(C)[C@H]2CC[C@H](COc3cc4nnc(NS(C)(=O)=O)n4cc3C3CC3)[C@@H]1C2 [Example 83] | 3
CC1(S(=O)(=O)Nc2nnc3cc(COc4cc(Cl)cc(OC(F)(F)F)c4)c(C4CC4)cn23)CC1 [Example 104, N-(7-((3-chloro-5-(trifluoromethoxy)phenoxy)methyl)-6-cyclopropyl-[1,2,4]triazolo[4,3-a]pyridin-3-yl)-1-methylcyclopropane-1-sulfonamide] | 4
O=S(=O)(Nc1nnc2cc(OCC34CC5CC(CC(C5)C3)C4)c(C3CC3)cn12)N1CCC1 [Example 127, N-(7-(adamantan-1-ylmethoxy)-6-cyclopropyl-[1,2,4]triazolo[4,3-a]pyridin-3-yl)azetidine-1-sulfonamide] | 9
CC1(COc2cc3nnc(NS(C)(=O)=O)n3cc2C2CC2)CCN(C(c2ccccc2)c2ccccc2)CC1 [Example 116, N-(7-((1-benzhydryl-4-methylpiperidin-4-yl)methoxy)-6-cyclopropyl-[1,2,4]triazolo[4,3-a]pyridin-3-yl)methanesulfonamide] | 16
CS(=O)(=O)Nc1nnc2cc(OC[C@H]3CC[C@H](C)CC3)c(Br)cn12 [Example 32] | 86.6
CS(=O)(=O)Nc1nnc2cc(OCCC34CC5CC(CC(C5)C3)C4)c(C3CC3)cn12 [Example 21] | 8.51
O=S(=O)(Nc1nnc2cc(COc3ccc(Cl)c(Cl)c3)c(C3CC3)cn12)N1CCC1 [Example 41, N-(6-cyclopropyl-7-((3,4-dichlorophenoxy)methyl)-[1,2,4]triazolo[4,3-a]pyridin-3-yl)azetidine-1-sulfonamide] | 18.9
CC1(C)C2CCC1(C)[C@H](Oc1cc3nnc(NS(C)(=O)=O)n3cc1C1CC1)C2 (stereo in doubt) [Example 31, N-(6-cyclopropyl-7-(((1S,2R,4R)-1,7,7-trimethylbicyclo-[2.2.1]heptan-2-yl)oxy)-[1,2,4]triazolo[4,3-a]pyridin-3-yl)methanesulfonamide] | 260
CC1(S(=O)(=O)Nc2nnc3cc(OCC45CC6CC(CC(C6)C4)C5)c(C4CC4)cn23)CC1 [Example 19, N-(7-((3r,5r,7r)-adamantan-1-ylmethoxy)-6-cyclopropyl-[1,2,4]triazolo[4,3-a]pyridin-3-yl)-1-methylcyclopropane-1-sulfonamide] | 7.19
CS(=O)(=O)Nc1nnc2cc(OCC3(C(F)(F)F)CCCC3)c(C3CC3)cn12 [Example 37] | 45.2
Cc1cc(Cl)cc(OCc2cc3nnc(NS(C)(=O)=O)n3cc2C2CC2)c1 [Example 47, N-(7-((3-chloro-5-methylphenoxy)methyl)-6-cyclopropyl-[1,2,4]triazolo[4,3-a]pyridin-3-yl)methanesulfonamide] | 7.29
CC1(COc2cc3nnc(NS(=O)(=O)C4CC4)n3cc2C2CC2)CCC2(CC1)CC2 [Example 114, N-(6-cyclopropyl-7-((6-methylspiro[2.5]octan-6-yl)methoxy)-[1,2,4]triazolo[4,3-a]pyridin-3-yl)cyclopropanesulfonamide] | 8
CC1(S(=O)(=O)Nc2nnc3cc(COc4cc(Cl)cc(Cl)c4)c(C4CC4)cn23)CC1 [Example 50, N-(6-cyclopropyl-7-((3,5-dichlorophenoxy)methyl)-[1,2,4]-triazolo[4,3-a]pyridin-3-yl)-1-methylcyclopropane-1-sulfonamide] | 4.87
C=Cc1cn2c(NS(C)(=O)=O)nnc2cc1OCC1(C)CCCCC1 [Example 62, N-(7-((1-methylcyclohexyl)methoxy)-6-vinyl-[1,2,4]triazolo-[4,3-a]pyridin-3-yl)methanesulfonamide] | 65
CS(=O)(=O)Nc1nnc2cc(OCC3CCCCC3)c(Br)cn12 [Example 6] | 90.3
CC1(S(=O)(=O)Nc2nnc3cc(OCC45CC6CC(CC(C6)C4)C5)c(C4CC4)cn23)CC1 [Example 74, N-(7-((3r,5r,7r)-adamantan-1-ylmethoxy)-6-cyclopropyl-[1,2,4]triazolo[4,3-a]pyridin-3-yl)-1-methylcyclopropane-1-sulfonamide] | 7

Structure (SMILES) | IC50 [nM]
CS(=O)(=O)Nc1nnc2cc(OC[C@@H]3C[C@H]4CC[C@@H](C3)N4C(c3ccccc3)c3ccccc3)c(C3CC3)cn12 [Example 123, N-(7-(((1R,3S,5S)-8-benzhydryl-8-azabicyclo[3.2.1]octan-3-yl)methoxy)-6-cyclopropyl-[1,2,4]triazolo[4,3-a]pyridin-3-yl)methanesulfonamide] | 17
CCS(=O)(=O)Nc1nnc2cc(OCC34CC5CC(CC(C5)C3)C4)c(C3CC3)cn12 [Example 17, N-(7-((3r,5r,7r)-adamantan-1-ylmethoxy)-6-cyclopropyl-[1,2,4]triazolo[4,3-a]pyridin-3-yl)ethanesulfonamide] | 4.26
CS(=O)(=O)Nc1nnc2cc(OC[C@H]3CC[C@H](C)CC3)c(C3CC3)cn12 [Example 88] | 18
CC1(COc2cc3nnc(NS(=O)(=O)C4CC4)n3cc2C2CC2)CCN(Cc2cc(Cl)cc(Cl)c2)CC1 [Example 111, N-(6-cyclopropyl-7-((1-(3,5-dichlorobenzyl)-4-methylpiperidin-4-yl)methoxy)-[1,2,4]triazolo[4,3-a]pyridin-3-yl)cyclopropanesulfonamide] | 8
CS(=O)(=O)Nc1nnc2cc(OC[C@H]3CC[C@H](C(F)(F)F)CC3)c(C3CC3)cn12 [Example 68, N-(6-cyclopropyl-7-(((trans)-4-(trifluoromethyl)cyclohexyl)methoxy)-[1,2,4]triazolo[4,3-a]pyridin-3-yl)methanesulfonamide] | 23
CC1(S(=O)(=O)Nc2nnc3cc(COc4cc(Cl)cc(Cl)c4)c(C4CC4)cn23)CC1 [Example 105, N-(6-cyclopropyl-7-((3,5-dichlorophenoxy)methyl)-[1,2,4]-triazolo[4,3-a]pyridin-3-yl)-1-methylcyclopropane-1-sulfonamide] | 5
C=Cc1cn2c(NS(C)(=O)=O)nnc2cc1OCC12CC3CC(CC(C3)C1)C2 [Example 128, N-(7-(adamantan-1-ylmethoxy)-6-vinyl-[1,2,4]triazolo[4,3-a]-pyridin-3-yl)methanesulfonamide] | 45
CS(=O)(=O)Nc1nnc2cc(COc3cc(Cl)cc(OC(F)(F)F)c3)c(C3CC3)cn12 [Example 98, N-(7-((3-chloro-5-(trifluoromethoxy)phenoxy)methyl)-6-cyclopropyl-[1,2,4]triazolo[4,3-a]pyridin-3-yl)methanesulfonamide] | 3
O=S(=O)(Nc1nnc2cc(OC3CCC4(CCCCC4)CC3)c(C3CC3)cn12)C1CC1 [Example 35, N-(6-cyclopropyl-7-(spiro[5.5]undecan-3-yloxy)-[1,2,4]triazolo-[4,3-a]pyridin-3-yl)cyclopropanesulfonamide] | 51.3
CCS(=O)(=O)Nc1nnc2cc(OCC34CC5CC(CC(C5)C3)C4)c(C3CC3)cn12 [Example 72, N-(7-((3r,5r,7r)-adamantan-1-ylmethoxy)-6-cyclopropyl-[1,2,4]triazolo[4,3-a]pyridin-3-yl)ethanesulfonamide] | 4
O=S(=O)(Nc1nnc2cc(OC3CCC4(CCCCC4)CC3)c(C3CC3)cn12)C1CC1 [Example 90, N-(6-cyclopropyl-7-(spiro[5.5]undecan-3-yloxy)-[1,2,4]triazolo[4,3-a]pyridin-3-yl)cyclopropanesulfonamide] | 51
O=S(=O)(Nc1nnc2cc(COc3ccc(Cl)c(Cl)c3)c(C3CC3)cn12)N1CCC1 [Example 96, N-(6-cyclopropyl-7-((3,4-dichlorophenoxy)methyl)-[1,2,4]triazolo[4,3-a]pyridin-3-yl)azetidine-1-sulfonamide] | 19
Cc1cc(Cl)cc(OCc2cc3nnc(NS(=O)(=O)C4CC4)n3cc2C2CC2)c1 [Example 103, N-(7-((3-chloro-5-methylphenoxy)methyl)-6-cyclopropyl-[1,2,4]triazolo[4,3-a]pyridin-3-yl)cyclopropanesulfonamide] | 6
CC1(COc2cc3nnc(NS(C)(=O)=O)n3cc2C2CC2)CCN(Cc2cc(Cl)cc(Cl)c2)CC1 [Example 110, N-(6-cyclopropyl-7-((1-(3,5-dichlorobenzyl)-4-methylpiperidin-4-yl)methoxy)-[1,2,4]triazolopyridin-3-yl)methanesulfonamide] | 12
CC1(COc2cc3nnc(NS(=O)(=O)C4CC4)n3cc2C2CC2)CCC(F)(F)CC1 [Example 53, N-(6-cyclopropyl-7-((4,4-difluoro-1-methylcyclohexyl)methoxy)-[1,2,4]triazolo[4,3-a]pyridin-3-yl)cyclopropanesulfonamide] | 67.4
CS(=O)(=O)Nc1nnc2cc(O[C@@H]3CCCN(Cc4ccc(F)cc4Cl)C3)c(C3CC3)cn12 [Example 112, (R)—N-(7-((1-(2-chloro-4-fluorobenzyl)piperidin-3-yl)oxy)-6-cyclopropyl-[1,2,4]triazolo[4,3-a]pyridin-3-yl)methanesulfonamide] | 130
O=S(=O)(Nc1nnc2cc(CN3CCC(Oc4cc(Cl)cc(Cl)c4)CC3)c(C3CC3)cn12)C1CC1 [Example 124, N-(6-cyclopropyl-7-((4-(3,5-dichlorophenoxy)piperidin-1-yl)methyl)-[1,2,4]triazolo[4,3-a]pyridin-3-yl)cyclopropanesulfonamide] | 320
O=S(=O)(Nc1nnc2cc(OCCC34CC5CC(CC(C5)C3)C4)c(C3CC3)cn12)C1CC1 [Example 22] | 7.35
